The text below walks through data of publication doi:10.1101/2024.08.19.608619, “Discovery of potent SARS-CoV-2 nsp3 macrodomain inhibitors uncovers lack of translation to cellular antiviral response” (bioRxiv, 2024).

A short description of data set [1]: Hepatic microsomal stability, HLM. Type of data set: in vitro ADME, human. The following applies: In vitro human liver microsomal stability; for perc_remaining_no_cofactor: no cofactor. (Microsomes from liver hold many membrane-bound enzymes, among them those of drug oxidation.)
Data set [2] in a line: In vitro kinetic solubility. As to conditions: In vitro kinetic solubility, ph 7.4.
Data set [3] can be described thus: Permeability Papp (AB) MDR1/MDCKII. The following applies: In vitro MDR1-MDCKII permeability, mean; for papp_a_to_b_mean: A to B; for perc_recovery_a_to_b_mean: recovery A to B.
Data set [4] in a line: Hepatic microsomal stability, MLM. Type of data set: in vitro ADME.
Data set [5] in a line: LogD. The following applies: pH 7.4; In vitro LogD.
[6] abbreviates: In vitro mouse liver microsomal stability.
[7] abbreviates: In vitro mouse liver microsomal stability; no cofactor.
The mark [8] stands for this setting: In vitro mouse liver microsomal stability, no cofactor.

SMILES strings stand for the structures. ≈ marks a conversion by molar mass, not a printed value.

Take `O=C(Nc1cccc2c(C(=O)N[C@H]3c4ccccc4C[C@H]3C(=O)O)c[nH]c12)NC1CC1` (racemic) [ASAP-0000627]: in data set [1], the clint came to 6.0 µL/min/mg, the perc_remaining is 88.0%, the t_half is 279.8 min and the perc_remaining_no_cofactor was found to be 86.0%. In addition, in data set [2], the solubility_mean was at least 400 µM. For the same molecule, in data set [3], the papp_a_to_b_mean was 1.8 ×10⁻⁶ cm/s and the perc_recovery_a_to_b_mean worked out at 81.0%. In data set [4] (setting [6]), this molecule gave a clint of 4.0 µL/min/mg, a perc_remaining of 95.0% and a t_half of 453.6 min. Besides, in data set [4] (setting [7]), the perc_remaining_no_cofactor is on record as 105.0%. In data set [5], this molecule displayed a logd of -0.05.

For `CC(C)[C@H](Nc1ncnc2[nH]cc(C(N)=O)c12)c1ccc2c(c1)OCCO2` (racemic) [ASAP-0008399], in data set [1], the clint is 143.0 µL/min/mg, the perc_remaining is listed as 9.0%, the t_half was 11.7 min and the perc_remaining_no_cofactor was determined as 110.0%. Moreover, the solubility_mean in data set [2] was found to be 375 µM (≈ 138 µg/mL). In data set [3], the papp_a_to_b_mean worked out at 11.1 ×10⁻⁶ cm/s and the perc_recovery_a_to_b_mean was 90.0%. Moreover, in data set [4] (setting [6]), the clint turned out to be 142.0 µL/min/mg, the perc_remaining amounted to 9.0% and the t_half is given as 11.7 min. For the same molecule, in data set [4] (setting [8]), the perc_remaining_no_cofactor turned out to be 98.0%. The molecule further gave a logd in data set [5] of 3.2.

For the molecule `CC(C)[C@H](Nc1ncnc2[nH]c(-c3cnn(C)c3C#N)cc12)c1ccc2c(c1)NC(=O)CO2` (racemic) [ASAP-0008576], in data set [1], the clint was determined as 100.0 µL/min/mg, the perc_remaining came out at 18.0%, the t_half is 16.6 min and the perc_remaining_no_cofactor stood at 93.0%. Further, the solubility_mean in data set [2] turned out to be 69 µM (≈ 30.5 µg/mL). In data set [3], the papp_a_to_b_mean was 3.07 ×10⁻⁶ cm/s and the perc_recovery_a_to_b_mean was 80.1%. For the same molecule, in data set [4] (setting [6]), the clint came out at 177.0 µL/min/mg, the perc_remaining is 6.0% and the t_half stood at 9.4 min. In addition, in data set [4] (setting [8]), the perc_remaining_no_cofactor was 97.0%. In addition, the logd in data set [5] turned out to be 4.1.

As for `CC(C)(C)[C@H](Nc1ncnc2[nH]c(-c3cnn(CC(N)=O)c3)cc12)c1ccc2c(c1)OCCO2` (racemic) [ASAP-0008581], in data set [1], the clint worked out at 133.0 µL/min/mg, the perc_remaining amounted to 11.0%, the t_half worked out at 12.6 min and the perc_remaining_no_cofactor is 87.0%. In addition, the solubility_mean in data set [2] is 195 µM (≈ 90 µg/mL). In data set [3], the papp_a_to_b_mean came to 1.66 ×10⁻⁶ cm/s and the perc_recovery_a_to_b_mean was 94.7%. In data set [4] (setting [6]), this molecule came in with a clint of 47.0 µL/min/mg, a perc_remaining of 46.0% and a t_half of 35.2 min. In data set [4] (setting [8]), the perc_remaining_no_cofactor is reported as 107.0%. The logd in data set [5] was found to be 3.2.

Regarding `CC(C)[C@H](Nc1ncnc2[nH]c(-c3cnn(CC(N)=O)c3)cc12)c1ccc2c(c1)NC(=O)CO2` (racemic) [ASAP-0008621], in data set [1], the clint was found to be 17.0 µL/min/mg, the perc_remaining was 73.0%, the t_half is 99.2 min and the perc_remaining_no_cofactor came to 91.0%. For the same molecule, the solubility_mean in data set [2] turned out to be 25 µM (≈ 11.5 µg/mL). In data set [3], the papp_a_to_b_mean turned out to be 1.36 ×10⁻⁶ cm/s and the perc_recovery_a_to_b_mean came out at 98.0%. In data set [4] (setting [6]), this molecule showed a clint of 11.0 µL/min/mg, a perc_remaining of 84.0% and a t_half of 155.8 min. For the same molecule, the perc_remaining_no_cofactor in data set [4] (setting [8]) was determined as 102.0%. Besides, in data set [5], the logd is reported as 2.5.

Regarding `CNC(=O)c1c[nH]c2ncnc(N[C@H](c3ccc4c(c3)NC(=O)CO4)C(C)C)c12` (racemic) [ASAP-0008637], in data set [1], the clint turned out to be 86.0 µL/min/mg, the perc_remaining is listed as 23.0%, the t_half is recorded as 19.5 min and the perc_remaining_no_cofactor was determined as 98.0%. In data set [2], this molecule displayed a solubility_mean of 28 µM (≈ 11 µg/mL). In data set [3], this molecule returned a papp_a_to_b_mean of 4.26 ×10⁻⁶ cm/s and a perc_recovery_a_to_b_mean of 97.4%. In data set [4] (setting [6]), this molecule yielded a clint of 113.0 µL/min/mg, a perc_remaining of 16.0% and a t_half of 14.8 min. Also, the perc_remaining_no_cofactor in data set [4] (setting [8]) is 95.0%. This molecule returned a logd in data set [5] of 3.2.

For the molecule `CNC(=O)c1c[nH]c2ncnc(N[C@H](c3ccc4c(c3)S(=O)(=O)CCC4)C(C)C)c12` (racemic) [ASAP-0008641], in data set [1], the clint was determined as 131.0 µL/min/mg, the perc_remaining is given as 11.0%, the t_half is on record as 12.8 min and the perc_remaining_no_cofactor came to 104.0%. For the same molecule, the solubility_mean in data set [2] turned out to be 390 µM (≈ 167 µg/mL). Further, in data set [3], the papp_a_to_b_mean was 2.23 ×10⁻⁶ cm/s and the perc_recovery_a_to_b_mean is on record as 79.1%. Further, in data set [4] (setting [6]), the clint stood at 192.0 µL/min/mg, the perc_remaining is reported as 3.0% and the t_half turned out to be 8.7 min. Besides, the perc_remaining_no_cofactor in data set [4] (setting [8]) was found to be 92.0%. Further, in data set [5], the logd stood at 2.5.

For `CC(C)[C@H](Nc1ncnc2[nH]cc(C(=O)NC3CC3)c12)c1ccc2c(c1)S(=O)(=O)CCC2` (racemic) [ASAP-0008647], in data set [1], the clint was 29.0 µL/min/mg, the perc_remaining was determined as 57.0%, the t_half stood at 57.0 min and the perc_remaining_no_cofactor was 90.0%. This molecule also came in with a solubility_mean in data set [2] of 257 µM (≈ 117 µg/mL). In data set [3], the papp_a_to_b_mean came out at 2.46 ×10⁻⁶ cm/s and the perc_recovery_a_to_b_mean was determined as 73.4%. In data set [4] (setting [6]), this molecule had a clint of 234.0 µL/min/mg, a perc_remaining of 2.0% and a t_half of 7.2 min. The perc_remaining_no_cofactor in data set [4] (setting [8]) is reported as 101.0%. The logd in data set [5] was found to be 3.1.

Regarding `CC(C)(C)[C@H](Nc1ncnc2[nH]c(-c3cnn(CC(N)=O)c3)cc12)c1ccc2c(n1)OCCO2` (racemic) [ASAP-0008648], in data set [1], the clint came to 36.0 µL/min/mg, the perc_remaining came out at 55.0%, the t_half was found to be 46.0 min and the perc_remaining_no_cofactor was 96.0%. The same molecule displayed a solubility_mean in data set [2] of 48 µM (≈ 22.2 µg/mL). Moreover, in data set [3], the papp_a_to_b_mean stood at 0.822 ×10⁻⁶ cm/s and the perc_recovery_a_to_b_mean is 88.8%. In data set [4] (setting [6]), this molecule had a clint of 31.0 µL/min/mg, a perc_remaining of 60.0% and a t_half of 53.1 min. The perc_remaining_no_cofactor in data set [4] (setting [8]) came to 90.0%. Moreover, in data set [5], the logd is reported as 2.7.

For the molecule `COCCNC(=O)c1c[nH]c2ncnc(N[C@H](c3ccc4c(c3)S(=O)(=O)CCC4)C(C)C)c12` (racemic) [ASAP-0008650], in data set [1], the clint came out at 540.0 µL/min/mg, the perc_remaining was determined as 0.0%, the t_half is on record as 3.1 min and the perc_remaining_no_cofactor is recorded as 106.0%. For the same molecule, the solubility_mean in data set [2] was determined as 378 µM (≈ 178 µg/mL). In data set [3], this molecule had a papp_a_to_b_mean of 1.62 ×10⁻⁶ cm/s and a perc_recovery_a_to_b_mean of 73.3%. Also, in data set [4] (setting [6]), the clint came to 888.0 µL/min/mg, the perc_remaining was found to be 0.0% and the t_half is reported as 1.9 min. The perc_remaining_no_cofactor in data set [4] (setting [8]) was found to be 99.0%. The molecule further gave a logd in data set [5] of 2.8.

With `CC(C)[C@H](Nc1ncnc2[nH]c(-c3cnn(CC(N)=O)c3)cc12)c1ccc2c(c1)S(=O)(=O)CCC2` (racemic) [ASAP-0008679], in data set [1], the clint worked out at 116.0 µL/min/mg, the perc_remaining amounted to 15.0%, the t_half was 14.4 min and the perc_remaining_no_cofactor was determined as 95.0%. This molecule yielded a solubility_mean in data set [2] of 341 µM (≈ 168 µg/mL). In data set [3], this molecule had a papp_a_to_b_mean of 0.32 ×10⁻⁶ cm/s and a perc_recovery_a_to_b_mean of 79.9%. In data set [4] (setting [6]), this molecule gave a clint of 61.0 µL/min/mg, a perc_remaining of 37.0% and a t_half of 27.4 min. For the same molecule, the perc_remaining_no_cofactor in data set [4] (setting [7]) is 109.0%. In data set [5], the logd was 1.9.

On to `CCNC(=O)c1cc2c(N[C@H](c3ccc4c(c3)S(=O)(=O)CCC4)C(C)C)ncnc2[nH]1` (racemic) [ASAP-0008711], for which, in data set [1], the clint came to 108.0 µL/min/mg, the perc_remaining is listed as 15.0%, the t_half was determined as 15.4 min and the perc_remaining_no_cofactor was determined as 98.0%. Also, in data set [2], the solubility_mean was found to be 336 µM (≈ 148 µg/mL). Moreover, in data set [3], the papp_a_to_b_mean is 0.7 ×10⁻⁶ cm/s and the perc_recovery_a_to_b_mean is given as 87.2%. In addition, in data set [4] (setting [6]), the clint was found to be 85.0 µL/min/mg, the perc_remaining is on record as 21.0% and the t_half amounted to 19.5 min. Also, the perc_remaining_no_cofactor in data set [4] (setting [7]) is 95.0%. This molecule gave a logd in data set [5] of 2.8.

Turning to `CC(C)[C@H](Nc1ncnc(N)c1Cl)c1ccc2c(c1)S(=O)(=O)CCC2` (racemic) [ASAP-0010739], in data set [1], the clint was 79.0 µL/min/mg, the perc_remaining is reported as 27.0%, the t_half is given as 21.0 min and the perc_remaining_no_cofactor stood at 101.0%. In data set [2], this molecule yielded a solubility_mean of at least 400 µM. In data set [3], this molecule displayed a papp_a_to_b_mean of 10.1 ×10⁻⁶ cm/s and a perc_recovery_a_to_b_mean of 58.5%. Moreover, in data set [4] (setting [6]), the clint stood at 204.0 µL/min/mg, the perc_remaining is on record as 4.0% and the t_half is 8.2 min. Also, the perc_remaining_no_cofactor in data set [4] (setting [8]) was 102.0%. The molecule also gave a logd in data set [5] of 2.4.
